Laboratory results taken from a melting point compilation (Tetko et al.).

`O=c1[nH]c(-c2cccc(Br)c2)no1` showed a melting point of 198 to 200 °C. Compound `O=C(O)c1cc(Oc2ccccc2)ccn1` has a melting point of 179 to 181 °C. `Nc1cc(Br)cc(C(=O)O)c1` gave a melting point of 217 to 221 °C. Work on `CCCCn1c(CCC(=O)O)nc2cc(S(=O)(=O)N3CCOCC3)ccc21` yielded a melting point of 136 to 138 °C. `Clc1cc2nncn2cn1` gave a melting point of 111 to 113 °C. Work on `CC(C)(C)C(=O)N1CSCC1C(=O)O` (configuration not stated) yielded a melting point of 118 to 120 °C. For `CC1CSc2ccc(Cl)cc2NC1=O` (configuration not stated), the melting point was 222 to 224 °C. Work on `OCCNc1ccncc1` yielded a melting point of 110 to 112 °C. `Nc1nn2cc(-c3ccccc3)nc2s1` gave a melting point of 183 to 185 °C. `Cc1nc2sc3c(c2c(=O)n1N)CCCCC3` showed a melting point of 199 to 201 °C. Work on `Cc1ccc(Cc2nnc(N)s2)cc1` yielded a melting point of 209 to 211 °C. Work on `COc1ccc(S(=O)(=O)N2CCNCC2)cc1OC` yielded a melting point of 145 to 147 °C. `Cc1coc(-c2cccc(N)c2)n1` showed a melting point of 88 to 90 °C. For `CC(C)(C)OC(=O)NCc1nnn[nH]1`, the melting point was 153 to 155 °C. Work on `CC1(c2ccc(C(=O)O)cc2)NC(=O)NC1=O` (configuration not stated) yielded a melting point of 279 to 281 °C. With `O=C1NCCNC1c1ccccc1` (configuration not stated) the melting point was 139 to 141 °C. `COC(=O)c1ccc([N+](=O)[O-])cc1N` showed a melting point of 156 to 158 °C. With `Cc1nc2ccc(Cl)cc2cc1C(=O)O` the melting point was 218 to 220 °C. With `Cc1ccc(Cl)cc1NC(=O)CC#N` the melting point was 190 to 192 °C. `O=C(O)CSc1ncn[nH]1` gave a melting point of 154 to 156 °C. For `Cc1[nH]c(=O)[nH]c(=O)c1C#N`, the melting point was 351 to 353 °C. For `O=C(O)C1C2CCCC21` (configuration not stated), the melting point was 34 to 36 °C. In the case of `N#CCC(=O)c1ccc2c(c1)OCO2`, the melting point is reported as 134 to 136 °C. Compound `Cn1cc(C=O)c(-c2cccnc2)n1` has a melting point of 86 to 88 °C. For `CC(=O)c1ccc2c3c(cccc13)CC2`, the melting point was 58 to 60 °C. In the case of `c1cnn(-c2ccc(N3CCNCC3)nn2)c1`, the melting point is reported as 161 to 163 °C. Work on `O=C(Nc1ccc(F)cc1)c1ccc2c(c1)OCO2` yielded a melting point of 186 to 188 °C. For `NC1(C(=O)O)CCOCC1`, the melting point was 268 to 270 °C. For `CC1CN(c2ccc(NC(=O)CCl)cc2)CC(C)O1` (configuration not stated), the melting point was 175 to 177 °C. Compound `O=[N+]([O-])c1cncc(Br)c1Cl` has a melting point of 45 to 47 °C. Work on `CC(C)C(Oc1ccccc1C#N)C(=O)O` (configuration not stated) yielded a melting point of 67 to 69 °C. `O=C(O)Cc1cccc(OCCCOc2ccccc2)c1` showed a melting point of 78 to 80 °C. In the case of `Nc1ncnc(Nc2ccc(F)cc2)n1`, the melting point is reported as 249 to 251 °C. In the case of `CCCS(=O)(=O)Nc1ccccc1C(=O)O`, the melting point is reported as 150 to 152 °C. `CC(=O)c1nnn(-c2ccc(F)cc2)c1C` showed a melting point of 77 to 79 °C. Work on `COc1ccc(Br)cc1CBr` yielded a melting point of 51 to 58 °C. For `O=C(O)c1cc(-c2ccco2)nc2ccccc12`, the melting point was 209 to 211 °C. Work on `Cc1ccc(Nc2nnc(S)s2)cc1C` yielded a melting point of 181 to 183 °C. Compound `O=C(O)C1CSC(c2ccc(Cl)s2)N1` (configuration not stated) has a melting point of 149 to 151 °C. `Cc1ccc(-c2nnc(S)o2)cc1` showed a melting point of 266 to 268 °C. Compound `CCN(CCC(=O)O)Cc1nc2c(C)cccc2c(=O)[nH]1` has a melting point of 184 to 186 °C. In the case of `COc1ccc(S(=O)(=O)NC(C)(C)C)c(CC(=O)O)c1`, the melting point is reported as 198 to 200 °C. Compound `CC(C)c1cc(N)n(-c2ncccn2)n1` has a melting point of 146 to 148 °C. In the case of `CC(NS(=O)(=O)c1ccc(N)cc1)C1CC2CCC1C2` (configuration not stated), the melting point is reported as 202 to 204 °C. Work on `O=C(O)C1CCCN(C(=O)Cc2ccc(F)cc2)C1` (configuration not stated) yielded a melting point of 122 to 124 °C. With `Cn1c(S)nnc1C1CC1` the melting point was 180 to 182 °C. `CNC(CO)c1cccc(Br)c1` (configuration not stated) gave a melting point of 79 to 81 °C. In the case of `O=CNc1cccc(O)c1`, the melting point is reported as 115 to 117 °C. In the case of `Nc1cc(-n2cnnn2)ccc1Cl`, the melting point is reported as 159 to 161 °C. With `CC(C)(C)OC(=O)NC(C)(C)C(N)=S` the melting point was 169 to 171 °C. For `CCOC(=O)c1cnn(-c2cccc(N)c2)c1C(F)(F)F`, the melting point was 87 to 89 °C. `O=C1CC(c2cccc(F)c2)CN1` (configuration not stated) gave a melting point of 77 to 79 °C. `CCOC(=O)c1cc(CC)sc1N` showed a melting point of 69 to 71 °C. With `Nn1c(S)nnc1Cc1ccc(F)cc1` the melting point was 203 to 205 °C. `C#CCS(=O)(=O)CCNC(=O)OC(C)(C)C` showed a melting point of 126 to 128 °C. Compound `Nc1cccc(Cn2[nH]c(=O)ccc2=O)c1` has a melting point of 163 to 165 °C. Compound `CSc1ccnc(C#N)c1` has a melting point of 66 to 68 °C. `O=C(O)C(=O)c1ccc(Br)cc1` gave a melting point of 105 to 107 °C. For `O=[N+]([O-])c1cc(S(=O)(=O)N2CCOCC2)ccc1N1CCOCC1`, the melting point was 154 to 156 °C. `O=C(O)c1cc(Cl)cc(S(=O)(=O)Cl)c1F` showed a melting point of 162 to 164 °C. Work on `Cc1c(Cl)cccc1NC(=O)CCl` yielded a melting point of 71 to 74 °C. `CS(=O)(=O)c1ccc(Cl)c(S(N)(=O)=O)c1` gave a melting point of 228 to 230 °C. In the case of `CC1Oc2c(cccc2C(=O)O)NC1=O` (configuration not stated), the melting point is reported as 281 to 283 °C. Work on `Nc1nc2cc3c(cc2s1)OCCO3` yielded a melting point of 203 to 205 °C. `O=C(CCl)Nc1ccc(NC(=O)c2cccs2)cc1` showed a melting point of 243 to 245 °C. Compound `Nc1nc(-c2c[nH]c3ccccc23)cs1` has a melting point of 167 to 169 °C. `N#Cc1c(N)sc2c1-c1ccccc1CC2` showed a melting point of 166 to 168 °C. For `COc1cc(C(=O)Cc2nc3ccccc3n2C(F)F)cc(OC)c1OC`, the melting point was 112 to 114 °C. With `Cc1ccccc1COc1ccccc1C(=O)O` the melting point was 103 to 105 °C. With `O=Cc1ccc(OCC(=O)O)c(Br)c1` the melting point was 196 to 198 °C. `NS(=O)(=O)c1cc(Cl)c(F)c(C(=O)O)c1` gave a melting point of 228 to 230 °C. Compound `CN(C(=O)c1ccccc1N)C1CCCCC1` has a melting point of 141 to 143 °C.
